According to article PMC11079024, “Identification of a family of species-selective complex I inhibitors as potential anthelmintics” (Nature Communications, 2024):
Like-named read-outs stand apart in the source and are kept apart here.

Experiments:
C. briggsae complex I = C. briggsae complex I (Caenorhabditis briggsae, UniProt A8X476+A8XFG2+Q8HEC4); experiment: In vitro complex I activity assay, C. briggsae mitochondria; type: biochemical
Experimental: (§1) Mitochondria were isolated from the following free-living nematode strains: C. elegans—N2, CB3474, ECA882, ECA917, ECA1075, ECA1080; C. briggsae—AF16; P. pacificus—PS312; and P. hermaphrodita—B178. With the exception of the P. hermaphrodita strain B178, adult worms of each strain were grown in bulk through liquid culture to obtain mitochondria in sufficient quantities. Due to poor growth in liquid media, mixed stage populations of P. hermaphrodita were washed off and collected from NGM plates seeded with OP50. The isolation of mitochondria from all free-living nematode strains followed the protocol previously outlined in Burns et al.[24]. In brief, a 1 L saturated culture of E. coli HB101 was concentrated 20-fold in 50 mL complete S-medium. ~500,000 L1 worms synchronized from an embryo preparation performed the day prior were added to the S-media/HB101 suspension and grown to adulthood over the course of 3.5 days at 20 °C with shaking at 165 rpm. Following growth, worms were collected in 10 ×15 mL conical tubes and washed 7 times in M9 buffer. Worm suspensions were then combined into a single 15 mL conical tube and diluted to a final volume of 15 mL with M9 buffer. 1 mL aliquots of worm suspension were then distributed to 15 × 1.5 mL screw-cap microcentrifuge tubes and were pelleted at 500 g for 1 min. Excess M9 was aspirated without disturbing the worm pellet. 600 μL ice-cold isolate buffer A (250 mM sucrose, 10 mM Tris (pH 7.5), 1 mM EDTA, 1 mM PMSF (freshly prepared)) and 300 μL cold glass beads were then added to each tube. Tubes were incubated on ice for 10 min, and the worms were then lysed by bead beating (6 x 30 s, with 1 min cooling intervals). Tubes containing worm lysate were centrifuged at 1,000 g for 10 min at 4 °C and the supernatant was transferred to 15 new microcentrifuge tubes on ice. The tubes were centrifuged a second time at 1,000 g for 10 min at 4 °C and the supernatant was once again transferred to 15 new microcentrifuge tubes on ice. These tubes were then centrifuged at 16,000 g for 10 min at 4 °C. The resulting mitochondrial pellet was washed twice by re-suspension in 300 μL of ice-cold isolate buffer B (250 mM sucrose, 10 mM Tris (pH 7.5), 1 mM EDTA). Following the final wash, isolation buffer was aspirated from each tube and the pellets were flash-frozen in ethanol/dry ice and stored at −80 °C until needed.
(§2) The enzymatic activities of individual ETC complexes (I-IV) were assessed spectrophotometrically in isolated mitochondria using a Varioskan LUX Multimode plate reader (ThermoFisher Scientific). Mitochondrial pellets previously isolated were thawed on ice and resuspended in ice-cold isolation buffer (250 mM sucrose, 10 mM Tris (pH 7.5), 1 mM EDTA). The BCA assay (Walker, 1994) was used to quantify the protein concentration of mitochondria suspensions; solutions were diluted to a concentration of 0.2 mg/mL for use in all assays. For the complex I assay, mitochondria pellets were freeze-thawed on ice three times to increase enzyme accessibility. […] 20 μL mitochondria suspension was then added/mixed with a pipette to initiate the reaction. Immediately following the addition of mitochondria, absorbance was measured (complex I and II: 600 nm; complex III and IV: 550 nm) in 30 s intervals over 15 min. Enzymatic activity was determined in each reaction by plotting absorbance versus time and calculating the slope of the curve during the initial linear phase of the reaction. […] Percent activity of each complex was calculated by dividing the enzyme-specific activity of each well by the enzyme-specific activity of the corresponding solvent controls.
Chemical solutions were prepared in complex I assay buffer composed of 25 mM KPi buffer (pH 7.5), 3 mg/mL bovine serum albumin (BSA), 80 μM NADH, 60 μM decylubiquinone, 160 μM DCIP, 2 μM antimycin A and 2 mM KCN.
For preliminary screens of hit compounds, compounds were screened at 100 μM; data are the average of at least three biological replicates.

P. pacificus complex I = P. pacificus complex I (Pristionchus pacificus, UniProt A0A454XZ18+A0A8R1Z3U8+A4UAP3); experiment: In vitro complex I activity assay, P. pacificus mitochondria; type: biochemical
Experimental: as §1, §2
Chemical solutions were prepared in complex I assay buffer composed of 25 mM KPi buffer (pH 7.5), 3 mg/mL bovine serum albumin (BSA), 80 μM NADH, 60 μM decylubiquinone, 160 μM DCIP, 2 μM antimycin A and 2 mM KCN. […]

[1] = C. briggsae mitochondria, Mean of replicates, read-out: in vitro complex I activity relative to solvent control
[2] = C. briggsae mitochondria, single replicate, read-out: in vitro complex I activity relative to solvent control
[3] = C. briggsae mitochondria, Mean, read-out: in vitro complex I activity relative to solvent control
[4] = P. pacificus mitochondria, Mean of replicates, read-out: in vitro complex I activity relative to solvent control
[5] = P. pacificus mitochondria, Mean, read-out: in vitro complex I activity relative to solvent control
[6] = P. pacificus mitochondria, single replicate, read-out: in vitro complex I activity relative to solvent control

Sequence of C. briggsae complex I (A8X476 31-482): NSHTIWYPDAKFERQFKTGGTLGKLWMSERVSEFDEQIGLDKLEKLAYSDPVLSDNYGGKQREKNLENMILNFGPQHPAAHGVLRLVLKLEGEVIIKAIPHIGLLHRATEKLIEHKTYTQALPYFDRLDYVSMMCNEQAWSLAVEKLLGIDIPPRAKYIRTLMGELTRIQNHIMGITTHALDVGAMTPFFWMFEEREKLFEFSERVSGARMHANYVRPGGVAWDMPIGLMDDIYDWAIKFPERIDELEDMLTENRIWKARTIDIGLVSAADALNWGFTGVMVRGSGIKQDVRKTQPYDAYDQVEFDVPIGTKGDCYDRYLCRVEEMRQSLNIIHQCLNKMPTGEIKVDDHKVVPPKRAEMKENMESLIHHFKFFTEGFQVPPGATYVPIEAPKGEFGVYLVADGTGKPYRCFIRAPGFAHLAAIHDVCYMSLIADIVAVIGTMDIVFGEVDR
Sequence of C. briggsae complex I (A8XFG2 17-199): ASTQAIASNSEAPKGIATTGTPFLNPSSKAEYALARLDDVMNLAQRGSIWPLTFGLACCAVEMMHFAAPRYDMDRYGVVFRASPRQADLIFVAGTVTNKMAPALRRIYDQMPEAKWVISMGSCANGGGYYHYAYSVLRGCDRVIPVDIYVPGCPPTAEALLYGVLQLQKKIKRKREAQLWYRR
Sequence of C. briggsae complex I (Q8HEC4 whole entry): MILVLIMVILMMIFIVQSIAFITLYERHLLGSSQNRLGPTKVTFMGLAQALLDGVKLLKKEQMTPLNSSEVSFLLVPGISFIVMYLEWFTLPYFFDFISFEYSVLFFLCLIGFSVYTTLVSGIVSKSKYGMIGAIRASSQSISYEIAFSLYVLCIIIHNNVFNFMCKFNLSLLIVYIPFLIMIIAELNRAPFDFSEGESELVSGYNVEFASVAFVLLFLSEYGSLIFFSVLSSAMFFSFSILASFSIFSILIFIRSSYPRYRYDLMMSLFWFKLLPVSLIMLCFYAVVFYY

CC(C)Cc1ccc(C(C)c2nc3ccccc3n2C)cc1 (stereo not drawn) [NPD8790] was tested, and the remaining activity at 0.06 µM (C. briggsae complex I; [1]) was 103%, the remaining activity at 0.06 µM (C. briggsae complex I; [2]) was 95.7% and the remaining activity at 0.13 µM (C. briggsae complex I; [1]) was 92%. For the same molecule, the remaining activity at 0.13 µM (C. briggsae complex I; [2]) was 86.2%, the remaining activity at 0.313 µM (C. briggsae complex I; [1]) was 85.6% and the remaining activity at 0.313 µM (C. briggsae complex I; [2]) was 76.1%. It also gave a remaining activity at 0.625 µM (C. briggsae complex I; [1]) of 74.2%, a remaining activity at 0.625 µM (C. briggsae complex I; [2]) of 81.9% and a remaining activity at 1.5 µM (C. briggsae complex I; [1]) of 61.1%. For the same molecule, the remaining activity at 1.5 µM (C. briggsae complex I; [2]) was 70%, the remaining activity at 3 µM (C. briggsae complex I; [1]) was 43.1% and the remaining activity at 3 µM (C. briggsae complex I; [2]) was 52.6%. For the same molecule, the remaining activity at 15 µM (C. briggsae complex I; [1]) was 16%, the remaining activity at 37.5 µM (C. briggsae complex I; [1]) was 11.7% and the remaining activity at 75 µM (C. briggsae complex I; [1]) was 9.21%. It also gave a remaining activity at 0.0001 µM (C. briggsae complex I; [3]) of 91.5%, a remaining activity at 0.0001 µM (C. briggsae complex I; [2]) of 87.3% and a remaining activity at 0.0005 µM (C. briggsae complex I; [3]) of 96.4%. The remaining activity at 0.0005 µM (C. briggsae complex I; [2]) was 99.9%, the remaining activity at 0.001 µM (C. briggsae complex I; [3]) was 102% and the remaining activity at 0.001 µM (C. briggsae complex I; [2]) was 99.6%. For the same molecule, the remaining activity at 0.0025 µM (C. briggsae complex I; [3]) was 115%, the remaining activity at 0.0025 µM (C. briggsae complex I; [2]) was 108% and the remaining activity at 0.005 µM (C. briggsae complex I; C. briggsae mitochondria, 0.005 µM, Mean, read-out: in vitro complex I activity relative to solvent control) was 119%. It also gave a remaining activity at 0.025 µM (C. briggsae complex I; C. briggsae mitochondria, 0.025 µM, Mean, read-out: in vitro complex I activity relative to solvent control) of 109%, a remaining activity at 0.063 µM (C. briggsae complex I; [3]) of 103% and a remaining activity at 0.063 µM (C. briggsae complex I; [2]) of 95.7%. It also gave a remaining activity at 0.125 µM (C. briggsae complex I; [3]) of 92%, a remaining activity at 0.125 µM (C. briggsae complex I; [2]) of 86.2% and a remaining activity at 0.313 µM (C. briggsae complex I; [3]) of 85.6%. For the same molecule, the remaining activity at 0.625 µM (C. briggsae complex I; [3]) was 74.2%, the remaining activity at 1.5 µM (C. briggsae complex I; [3]) was 61.1% and the remaining activity at 3 µM (C. briggsae complex I; [3]) was 43.1%. It also gave a remaining activity at 15 µM (C. briggsae complex I; [3]) of 16%, a remaining activity at 37.5 µM (C. briggsae complex I; [3]) of 11.7% and a remaining activity at 75 µM (C. briggsae complex I; [3]) of 9.21%. For the same molecule, the IC50 (C. briggsae complex I; purified mitochondria) was 1.6 µM, the remaining activity at 0.06 µM (P. pacificus complex I; P. pacificus mitochondria, 0.06 µM, Mean of replicates, read-out: in vitro complex I activity relative to solvent control) was 105% and the remaining activity at 0.13 µM (P. pacificus complex I; P. pacificus mitochondria, 0.13 µM, Mean of replicates, read-out: in vitro complex I activity relative to solvent control) was 88%. The remaining activity at 0.313 µM (P. pacificus complex I; [4]) was 82%, the remaining activity at 0.625 µM (P. pacificus complex I; [4]) was 75.5% and the remaining activity at 1.5 µM (P. pacificus complex I; [4]) was 68.1%. The remaining activity at 3 µM (P. pacificus complex I; [4]) was 49.1%, the remaining activity at 15 µM (P. pacificus complex I; [4]) was 21.4% and the remaining activity at 37.5 µM (P. pacificus complex I; [4]) was 16.3%. The remaining activity at 75 µM (P. pacificus complex I; [4]) was 11.3%, the remaining activity at 0.0001 µM (P. pacificus complex I; [5]) was 85.3% and the remaining activity at 0.0001 µM (P. pacificus complex I; [6]) was 79.8%. It also gave a remaining activity at 0.0005 µM (P. pacificus complex I; [5]) of 88.9%, a remaining activity at 0.0005 µM (P. pacificus complex I; [6]) of 82.3% and a remaining activity at 0.001 µM (P. pacificus complex I; P. pacificus mitochondria, 0.001 µM, Mean, read-out: in vitro complex I activity relative to solvent control) of 112%. The remaining activity at 0.0025 µM (P. pacificus complex I; P. pacificus mitochondria, 0.0025 µM, Mean, read-out: in vitro complex I activity relative to solvent control) was 110%, the remaining activity at 0.005 µM (P. pacificus complex I; P. pacificus mitochondria, 0.005 µM, Mean, read-out: in vitro complex I activity relative to solvent control) was 117% and the remaining activity at 0.013 µM (P. pacificus complex I; P. pacificus mitochondria, 0.013 µM, Mean, read-out: in vitro complex I activity relative to solvent control) was 105%. It also gave a remaining activity at 0.025 µM (P. pacificus complex I; P. pacificus mitochondria, 0.025 µM, Mean, read-out: in vitro complex I activity relative to solvent control) of 107%, a remaining activity at 0.063 µM (P. pacificus complex I; P. pacificus mitochondria, 0.063 µM, Mean, read-out: in vitro complex I activity relative to solvent control) of 105% and a remaining activity at 0.125 µM (P. pacificus complex I; P. pacificus mitochondria, 0.125 µM, Mean, read-out: in vitro complex I activity relative to solvent control) of 88%. For the same molecule, the remaining activity at 0.313 µM (P. pacificus complex I; [5]) was 82%, the remaining activity at 0.313 µM (P. pacificus complex I; [6]) was 71.1% and the remaining activity at 0.625 µM (P. pacificus complex I; [5]) was 75.5%. For the same molecule, the remaining activity at 1.5 µM (P. pacificus complex I; [5]) was 68.1%, the remaining activity at 3 µM (P. pacificus complex I; [5]) was 49.1% and the remaining activity at 15 µM (P. pacificus complex I; [5]) was 21.4%. It also gave a remaining activity at 37.5 µM (P. pacificus complex I; [5]) of 16.3%, a remaining activity at 75 µM (P. pacificus complex I; [5]) of 11.3% and an IC50 (P. pacificus complex I; purified mitochondria) of 2.1 µM.
